From patent US20250018049A1, “COMPOUNDS FOR DEGRADING CYCLIN-DEPENDENT KINASE 2 VIA UBIQUITIN PROTEOSOME PATHWAY” (NIKANG THERAPEUTICS, INC., priority 2020, published 2025)

How the values were obtained:
Type in all cases: cell-based
CDK2 [1] = target: T1, CDK2 (Homo sapiens, UniProt P24941); experiment: NanoBRET CDK2 engagement assay; set-up: expressed in transfected cells; details: OVCAR3 cells with stable CDK2-Luciferase vector, 24 hours treatment
In short: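 OVCAR3 cells stably expressing CDK2-luciferase, in Opti-MEM with 1% FBS, treated 24 h at 37° C with compound from 3 μM in ½-log steps to 0.3 nM; NanoBRET tracer present for final 2 h. Donor/acceptor emission read; engagement normalized to DMSO as 100% signal, IC50 by curve fit.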

CDK2 [2] = target: T1, CDK2; experiment: Phospho-Rb HTRF measurement in OVCAR3 cells (inhibition of CDK2); set-up: High-Throughput Measurement of Cellular Endogenous CDK2; endogenous in cells; host or cells: OVCAR3; details: pRB(S807/811) assay, 24 h compound treatment
CDK2 [3] = target: T1, CDK2; experiment: CDK2 HTRF assay (cellular endogenous CDK2 level); set-up: High-Throughput Measurement of Cellular Endogenous CDK2; endogenous in cells; host or cells: OVCAR3; details: OVCAR-3; OVCAR3 cells, 24 hours, 0.3 to 10,000 nM; read-out: max degradation of CDK2
Protocol: Effects of compounds on cellular CDK2 level can be monitored by a high-throughput HTRF assay or traditional Western Blot assay.
To determine half maximal degradation concentration (DC50) values of compounds, cellular CDK2 level was measured in 96-well format using HTRF total CDK2 cellular kit (Cat #64CDK2TPEG) from Cisbio.
On Day 1, OVCAR3 cells were seeded into 96-well tissue-culture treated plates at 20,000 cells/well in 200 μL and incubated overnight at 37° C. in CO2 atmosphere. On Day 2 cells were treated with compounds at concentration ranging from 0.3 to 10,000 nM using HP D300 digital dispenser. 24 hours after compound treatment, cell culture media was removed by flicking the plate and tapping the plate against clean paper towel. Immediately 30 μL 1× lysis buffer was supplemented from the kit and the plate was incubated at room temperature on shaker for 30 min. After homogenization by pipetting up and down, 8 μL cell lysate from 96-well cell culture plate was transferred to 384-well small volume white detection plate. 2 μL premixed detection solution was added and the plate was covered with sealer. To prepare the detection solution, d2 conjugated-CDK2 antibody and Eu-cryptate conjugated CDK2 antibody were diluted into detection buffer following manufacturer's instruction. Detection plates were incubated overnight at room temperature and read on ClarioStar (BMG Labtech) in TR-FRET mode (665 nM and 620 nM). The TR-FRET ratio (665 nM/620 nM) was plotted against the compound concentration and normalized to DMSO controls. Half maximal degradation concentration (DC50) values were calculated with a four-parameter logistic fit using GraphPad Prism (version 8; La Jolla, CA). FIG. 1 provides a dose-response curve of Compound 1 in Compound Table I in cellular CDK2 HTRF assay. IC50 in FIG. 1 is the same as DC50. Compounds 1, 13, 16, 22, 23, 28, 34, 35, 36, 37, 38, 39, 42, 48, 50, 51, 53, 54, 55, 56, 57, 58, 59, 60, 61, 62, 63, 65, 66, 68, 69, 70 were tested and max degradation of CDK2 observed was from about 35% to about 90%.

Compound | IC50 (CDK2 [1]) [nM] | IC50 (CDK2 [2]) [nM] | Dmax (CDK2 [3]) [%]
O=C1CCC(N2Cc3cc(N4CCN(CC5CCN(c6cccc(S(=O)(=O)N7CCC(Nc8ncc9ccc(=O)n(C%10CCCC%10)c9n8)CC7)c6)CC5)CC4)ccc3C2=O)C(=O)N1 (stereo not drawn) [Compound 36, 3-(5-(4-((1-(3-((4-((8-cyclopentyl-7-oxo-7,8-dihydropyrido[2,3-d]pyrimidin-2-yl)amino)-piperidin-1-yl)sulfonyl)phenyl)piperidin-4-yl)-methyl)piperazin-1-yl)-1-oxoisoindolin-2-yl)-piperidine-2,6-dione] | 212 | 25.7 | 35 to 90
O=C1CCC(N2Cc3cc(C4CN(Cc5cccc(S(=O)(=O)N6CCC(Nc7ncc8ccc(=O)n(C9CCCC9)c8n7)CC6)c5)C4)ccc3C2=O)C(=O)N1 (stereo not drawn) [Compound 37, 3-(5-(1-(3-((4-((8-cyclopentyl-7-oxo-7,8-dihydropyrido[2,3-d]pyrimidin-2-yl)amino)-piperidin-1-yl)sulfonyl)benzyl)azetidin-3-yl)-1-oxoisoindolin-2-yl)piperidine-2,6-dione] | 190 | 25.7 | 35 to 90
O=C1CCC(N2Cc3cc(N4CCC(CN5CCN(c6cccc(S(=O)(=O)N7CCC(Nc8ncc9ccc(=O)n(C%10CCCC%10)c9n8)CC7)c6)CC5)CC4)ccc3C2=O)C(=O)N1 (stereo not drawn) [Compound 38, 3-(5-(4-((4-(3-((4-((8-cyclopentyl-7-oxo-7,8-dihydropyrido[2,3-d]pyrimidin-2-yl)amino)-piperidin-1-yl)sulfonyl)phenyl)piperazin-1-yl)-methyl)piperidin-1-yl)-1-oxoisoindolin-2-yl)-piperidine-2,6-dione] | 42.3 | 11.1 | 35 to 90
O=C1CCC(N2Cc3cc(N4CCN(Cc5cccc(S(=O)(=O)N6CCC(Nc7ncc8ccc(=O)n(C9CCCC9)c8n7)CC6)c5)CC4)c(F)cc3C2=O)C(=O)N1 (stereo not drawn) [Compound 42, 3-(5-(4-(3-((4-((8-cyclopentyl-7-oxo-7,8-dihydropyrido[2,3-d]pyrimidin-2-yl)amino)-piperidin-1-yl)sulfonyl)benzyl)piperazin-1-yl)-6-fluoro-1-oxoisoindolin-2-yl)piperidine-2,6-dione] | 297 | 24.7 | 35 to 90
O=C1CCC(N2Cc3cc(N4CCN(Cc5cccc(S(=O)(=O)N6CCC(Nc7ncc8ccc(=O)n(C9CCCC9)c8n7)CC6)c5)CC4)ccc3C2=O)C(=O)N1 (stereo not drawn) [Compound 50, 3-(5-(4-(3-((4-((8-cyclopentyl-7-oxo-7,8-dihydropyrido[2,3-d]pyrimidin-2-yl)-amino)-piperidin-1-yl)sulfonyl)benzyl)-piperazin-1-yl)-1-oxoisoindolin-2-yl)piperidine-2,6-dione] | 289 | 49 | 35 to 90
O=C1CCC(N2Cc3cc(N4CC5CC4CN5Cc4cccc(S(=O)(=O)N5CCC(Nc6ncc7ccc(=O)n(C8CCCC8)c7n6)CC5)c4)ccc3C2=O)C(=O)N1 (stereo not drawn) [Compound 53, 3-(5-(5-(3-((4-((8-cyclopentyl-7-oxo-7,8-dihydropyrido[2,3-d]pyrimidin-2-yl)amino)-piperidin-1-yl)sulfonyl)benzyl)-2,5-diazabicyclo-[2.2.1]heptan-2-yl)-1-oxoisoindolin-2-yl)-piperidine-2,6-dione] | 152 | 259 | 35 to 90
O=C1CCC(N2Cc3cc(N4CC5CCC(C4)N5Cc4cccc(S(=O)(=O)N5CCC(Nc6ncc7ccc(=O)n(C8CCCC8)c7n6)CC5)c4)ccc3C2=O)C(=O)N1 (stereo not drawn) [Compound 54, 3-(5-(8-(3-((4-((8-cyclopentyl-7-oxo-7,8-dihydro-pyrido[2,3-d]pyrimidin-2-yl)amino)piperidin-1-yl)sulfonyl)benzyl)-3,8-diazabicyclo[3.2.1]octan-3-yl)-1-oxoisoindolin-2-yl)piperidine-2,6-dione] | 214 | 72.5 | 35 to 90
O=C1CCC(N2Cc3cc(N4CCN(Cc5cccc(S(=O)(=O)N6CCC(Nc7ncc8cc(C(F)F)c(=O)n(C9CCCC9)c8n7)CC6)c5)CC4)ccc3C2=O)C(=O)N1 (stereo not drawn) [Compound 56, 3-(5-(4-(3-((4-((8-cyclopentyl-6-(difluoromethyl)-7-oxo-7,8-dihydropyrido[2,3-d]pyrimidin-2-yl)amino)piperidin-1-yl)sulfonyl)benzyl)piperazin-1-yl)-1-oxoisoindolin-2-yl)piperidine-2,6-dione] | 241 | 67 | 35 to 90

Continued, values first:

IC50 (CDK2 [1]) [nM] | IC50 (CDK2 [2]) [nM] | Dmax (CDK2 [3]) [%] | Compound
< 1 | 13.6 | 35 to 90 | CN(CCCN1CCC(c2cccc3c2n(C)c(=O)n3C2CCC(=O)NC2=O)CC1)S(=O)(=O)N1CCC(Nc2ncc3ccc(=O)n(C4CCCC4)c3n2)CC1 (stereo not drawn) [Compound 23, 4-((8-cyclopentyl-7-oxo-7,8-dihydropyrido[2,3-d]pyrimidin-2-yl)amino)-N-(3-(4-(1-(2,6-dioxo-piperidin-3-yl)-3-methyl-2-oxo-2,3-dihydro-1H-benzo[d]imidazol-4-yl)piperidin-1-yl)propyl)-N-methylpiperidine-1-sulfonamide]
139 | 71100 | 35 to 90 | O=C1CCC(N2Cc3cc(C4CCN(CC5CCN(c6cccc(S(=O)(=O)N7CCC(Nc8ncc9ccc(=O)n(C%10CCCC%10)c9n8)CC7)c6)CC5)CC4)ccc3C2=O)C(=O)N1 (stereo not drawn) [Compound 35, 3-(5-(1-((1-(3-((4-((8-cyclopentyl-7-oxo-7,8-dihydropyrido[2,3-d]pyrimidin-2-yl)amino)-piperidin-1-yl)sulfonyl)phenyl)piperidin-4-yl)-methyl)piperidin-4-yl)-1-oxoisoindolin-2-yl)piperidine-2,6-dione]
94 | 490 | 35 to 90 | Cn1c(=O)n(C2CCC(=O)NC2=O)c2cccc(C3CCN(C4CCN(c5cccc(S(=O)(=O)N6CCC(Nc7ncc8ccc(=O)n(C9CCCC9)c8n7)CC6)c5)CC4)CC3)c21 (stereo not drawn) [Compound 39, 3-(4-(1′-(3-((4-((8-cyclopentyl-7-oxo-7,8-dihydro-pyrido[2,3-d]pyrimidin-2-yl)amino)piperidin-1-yl)sulfonyl)phenyl)-[1,4′-bipiperidin]-4-yl)-3-methyl-2-oxo-2,3-dihydro-1H-benzo[d]imidazol-1-yl)piperidine-2,6-dione]
722 | 131 | 35 to 90 | O=C1CCC(N2C(=O)c3cc(F)c(N4CCN(Cc5cccc(S(=O)(=O)N6CCC(Nc7ncc8ccc(=O)n(C9CCCC9)c8n7)CC6)c5)CC4)cc3C2=O)C(=O)N1 (stereo not drawn) [Compound 48, 5-(4-(3-((4-((8-cyclopentyl-7-oxo-7,8-dihydro-pyrido[2,3-d]pyrimidin-2-yl)amino)piperidin-1-yl)sulfonyl)-benzyl)piperazin-1-yl)-2-(2,6-dioxo-piperidin-3-yl)-6-fluoroisoindoline-1,3-dione]
198 | 154 | 35 to 90 | O=C1CCC(N2Cc3cc(N4CC5CCC4CN5Cc4cccc(S(=O)(=O)N5CCC(Nc6ncc7ccc(=O)n(C8CCCC8)c7n6)CC5)c4)ccc3C2=O)C(=O)N1 (stereo not drawn) [Compound 51, 3-(5-(5-(3-((4-((8-cyclopentyl-7-oxo-7,8-dihydropyrido[2,3-d]pyrimidin-2-yl)amino)-piperidin-1-yl)sulfonyl)benzyl)-2,5-diazabicyclo[2.2.2]octan-2-yl)-1-oxoisoindolin-2-yl)piperidine-2,6-dione]
736 | 70 | 35 to 90 | CC1(O)CCCC1n1c(=O)ccc2cnc(NC3CCN(S(=O)(=O)c4cccc(CN5CCN(c6ccc7c(c6)CN(C6CCC(=O)NC6=O)C7=O)CC5)c4)CC3)nc21 (stereo not drawn) [Compound 55, 3-(5-(4-(3-((4-((8-(2-hydroxy-2-methyl-cyclopentyl)-7-oxo-7,8-dihydropyrido[2,3-d]-pyrimidin-2-yl)amino)piperidin-1-yl)sulfonyl)-benzyl)piperazin-1-yl)-1-oxoisoindolin-2-yl)-piperidine-2,6-dione]
